Counter-ions that a name gives are not always drawn.
Experiments:
IL-4 production = assay: Test 1: inhibition of IL-4 production in human T-cell strain ATL-16T(-) stimulated with PMA (R&D Systems EIA); format: cell-based; settings: ATL-16T(-) 1×10^6 cells/0.5 ml/well, 20 nM PMA, 48 hours, read-out: Inhibition rate of IL-4 production; for inhibition at 10 µM: 10^-5 M; for inhibition at 1 µM: 10^-6 M; for inhibition at 0.1 µM: 10^-7 M; for inhibition at 0.01 µM: 10^-8 M
Protocol: Test 1: Test on the inhibition of IL-4 production
Into individual wells of a 48-well microplate, the human T-cell strain ATL-16T(-) was poured at a concentration of 1×10^6 cells/0.5 ml/well (n=3), followed by the addition of a stimulator (20 nM of PMA) and a medicament at the same time. The resulting mixture was incubated in 5% CO2 at 37° C. for 48 hours. After incubation, 100 μl of the supernatant were collected and subjected to measurement by a human IL-4 EIA kit (R&D SYSTEMS, INC.). The inhibition rate was calculated according to the following formula. [formula]

IL-5 production = assay: Test 3: inhibition of IL-5 production in human PBMC stimulated with ConA; format: cell-based; settings: 10^-6 M, 10 μg/ml ConA, 48 hours, read-out: Inhibition rate of IL-5 production
Protocol: Test 3: Test on the inhibition of IL-5 production
The peripheral blood was collected from a normal volunteer and peripheral blood mononuclear cells (PBMC) of the human peripheral blood were separated therefrom by the specific gravity centrifugation method. They were suspended in an AIM-V medium and their cell count was adjusted. To individual wells of a 96-well incubation plate, 1×10^6 cells/ml of PBMC were poured, followed by the addition of a stimulator (10 μg/ml of ConA) and a medicament. The resulting mixture was incubated in 5% CO2 at 37° C. for 48 hours. After incubation, 50 μl of the supernatant were collected and subjected to measurement by a human IL-5 EIA kit (BIO SOURCE, INC.). The inhibition rate was calculated according to the following formula. [formula]

| Structure (SMILES) | inhibition at 10 µM (IL-4 production) [%] | inhibition at 1 µM (IL-4 production) [%] | inhibition at 0.1 µM (IL-4 production) [%] | inhibition at 0.01 µM (IL-4 production) [%] | inhibition at 1 µM (IL-5 production) [%] |
| --- | --- | --- | --- | --- | --- |
| COc1cnc(/C=C/C(=O)c2ccccc2)cc1OC1CCCC1 [Ex. 2, 4-Cyclopentyloxy-5-methoxy-2-(3-oxo-3-phenyl-1-propenyl)pyridine] | 113 | 103 | 93.5 | 82.8 | 93.4 |
| COc1cnc(/C=C/C(=O)c2ccccc2)cc1OCc1ccccc1 [Ex. 3, 4-Benzyloxy-5-methoxy-2-(3-oxo-3-phenyl-1-propenyl)pyridine] | 98.9 | 81.1 | 75.9 | 60 | 65.8 |
| COCOc1cc(/C=C/C(=O)c2ccccc2)ncc1OC [Ex. 4, 5-Methoxy-4-methoxymethyloxy-2-(3-oxo-3-phenyl-1-propenyl)pyridine] | 86.2 | 75.2 | 67.9 | 57.4 | 60.2 |
| COCOc1cnc(/C=C/C(=O)c2ccccc2)cc1OCOC [Ex. 5, 4,5-Bis(methoxymethyloxy)-2-(3-oxo-3-phenyl-1-propenyl)pyridine] | 104 | 90 | 74 | 50.9 | 89.3 |
| COc1cc(/C=C/C(=O)c2ccccc2)ncc1OC(C)=O [Ex. 6, 5-Acetoxy-4-methoxy-2-(3-oxo-3-phenyl-1-propenyl)pyridine] | 102 | 86.1 | 75.2 | 58.8 | 67 |
| COc1cnc(/C=C/C(=O)c2ccccc2)cc1OC(C)=O [Ex. 7, 4-Acetoxy-5-methoxy-2-(3-oxo-3-phenyl-1-propenyl)pyridine] | 91.8 | 79.8 | 76.4 | 63.9 | 94.2 |
| CC(=O)Oc1cnc(/C=C/C(=O)c2ccccc2)cc1OC(C)=O [Ex. 8, 4,5-Diacetoxy-2-(3-oxo-3-phenyl-1-propenyl)pyridine] | 94.3 | 88 | 76.2 | 60.2 | 75.3 |
| CCCCCC(=O)/C=C/c1cc(OC2CCCC2)c(OC)cn1 [Ex. 9, 4-Cyclopentyloxy-5-methoxy-2-(3-oxo-1-octenyl)pyridine] | 94.6 | 92.7 | 86.5 | 70.7 | 82.5 |
| COc1cnc(/C=C/C(=O)C2CCCC2)cc1OC1CCCC1 [Ex. 10, 2-(3-Cyclopentyl-3-oxo-1-propenyl)-4-cyclopentyloxy-5-methoxypyridine] | 93.6 | 83.5 | 83.2 | 47.8 | 62.9 |
| CCCCCC(=O)/C=C/c1cc(OC(C)=O)c(OC(C)=O)cn1 [Ex. 11, 4,5-diacetoxy-2-(3-oxo-1-octenyl)pyridine] | 94.1 | 87.2 | 79.6 | 78.9 | 77.3 |
| CCOC(=O)CCCCCOc1cc(/C=C/C(=O)c2ccccc2)ncc1OC [Ex. 12, Ethyl 6-[5-methoxy-2-(3-oxo-3-phenyl-1-propenyl)-4-pyridyloxy]hexanoate] | 78.6 | 61.6 | 52.9 | 43 | 72.4 |
| CCCCCC(=O)/C=C/c1cc(OCCCC(=O)OCC)c(OC)cn1 [Ex. 13, Ethyl 4-[5-methoxy-2-(3-oxo-1-octenyl)-4-pyridyloxy]butanoate] | 87.9 | 77 | 68.7 | 62.3 | 80.9 |
| COC(=O)CCCOc1cc(/C=C/C(=O)c2ccccc2)ncc1OC [Ex. 16, Methyl 4-[5-methoxy-2-(3-oxo-3-phenyl-1-propenyl)-4-pyridyloxy]butanoate] | 90.1 | 82.1 | 81.6 | 76.8 | 79.4 |
| COC(=O)CCCCCOc1cnc(/C=C/C(=O)C2CCCC2)cc1OC [Ex. 17, Methyl 6-[4-methoxy-2-(3-cyclopentyl-3-oxo-1-propenyl)-5-pyridyloxy]hexanoate] | 111 | 92.8 | 88.6 | 74.7 | 84.3 |
| COC(=O)CCCOc1cnc(/C=C/C(=O)C2CCCC2)cc1OC [Ex. 18, Methyl 4-[4-methoxy-2-(3-cyclopentyl-3-oxo-1-propenyl)-5-pyridyloxy]butanoate] | 88.2 | 78.3 | 67.8 | 34.8 | 96.9 |
| COc1cc(/C=C/C(=O)c2ccccc2)ncc1O [Ex. 21, 5-hydroxy-4-methoxy-2-(3-oxo-3-phenyl-1-propenyl)pyridine] | 97.3 | 90.3 | 80.1 | 72.5 | 67.3 |
| CCCCCC(=O)/C=C/c1cc(O)c(O)cn1 [Ex. 22, 4,5-Dihydroxy-2-(3-oxo-1-octenyl)pyridine] | 111 | 75.5 | 67.6 | 50 | 80.9 |
| COc1cnc(/C=C/C(O)c2ccccc2)cc1OC (centres unmarked) [Ex. 23, 4,5-dimethoxy-2-(3-hydroxy-3-phenyl-1-propenyl)pyridine] | 88 | 80.7 | 64.9 | 64.7 | 96.3 |
| COc1cnc(/C=C/C(O)c2ccccc2)cc1O (centres unmarked) [Ex. 24, 4-Hydroxy-2-(3-hydroxy-3-phenyl-1-propenyl)-5-methoxypyridine] | 92.2 | 79.5 | 69.5 | 56 | 80 |
| CCCCCC(O)/C=C/c1cc(OCCCCCC(=O)OC)c(OC)cn1 (centres unmarked) [Ex. 30, Methyl 6-[2-(3-hydroxy-1-octenyl)-5-methoxy-4-pyridyloxy]hexanoate] | 74 | 67 | 56.8 | 40.7 | 73.2 |
| COC(=O)CCCCCOc1cnc(/C=C/C(O)C2CCCC2)cc1OC (centres unmarked) [Ex. 31, Methyl 6-[2-(3-cyclopentyl-3-hydroxy-1-propenyl)-4-methoxy5-pyridyloxy]hexanoate] | 81.2 | 69.5 | 58 | 40.4 | 71.6 |
| COc1cnc(/C=C/C(=O)N2CCOCC2)cc1OC [Ex. 110, 4,5-Dimethoxy-2-(3-morpholino-3-oxo-1-propenyl)pyridine hydrochloride] |  |  |  |  | 79.3 |
| COc1cnc(/C=C/C(=O)N2CCCCC2)cc1OC1CCCC1 [Ex. 111, 4-Cyclopentyloxy-5-methoxy-2-(3-oxo-3-piperidino-1-propenyl)pyridine hydrochloride] |  |  |  |  | 73.2 |

Reference: US6046218A, “Pyridine derivative and medicament containing the same as an effective ingredient” (SS Pharmaceutical Co., Ltd., priority 1996, dated 2000)
